Assay results as given in PubChem BioAssay (NCI).
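Five concentrations, 48 hours, 96-well plates. GI50 is the concentration that inhibits growth by half. TGI: concentration producing complete growth inhibition.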

Legend:
Assay in all cases: inhibition of tumour cell growth, NCI panel, 48 h
786-0 renal = test system: 786-0 renal
A498 renal = test system: A498 renal
A549 NSCLC = test system: A549 NSCLC
ACHN renal = test system: ACHN renal
BT-549 breast = test system: BT-549 breast
CAKI-1 renal = test system: CAKI-1 renal
CCRF-CEM leukemia = test system: CCRF-CEM leukemia
COLO 205 colon = test system: COLO 205 colon
DU-145 prostate = test system: DU-145 prostate
EKVX NSCLC = test system: EKVX NSCLC
HCC-2998 colon = test system: HCC-2998 colon
HCT-116 colon = test system: HCT-116 colon
HCT-15 colon = test system: HCT-15 colon
HL-60(TB) leukemia = test system: HL-60(TB) leukemia
HOP-62 NSCLC = test system: HOP-62 NSCLC
HOP-92 NSCLC = test system: HOP-92 NSCLC
HS 578T breast = test system: HS 578T breast
HT29 colon = test system: HT29 colon
IGROV1 ovarian = test system: IGROV1 ovarian
K-562 leukemia = test system: K-562 leukemia
KM12 colon = test system: KM12 colon
LOX IMVI melanoma = test system: LOX IMVI melanoma
M14 melanoma = test system: M14 melanoma
MALME-3M melanoma = test system: MALME-3M melanoma
MCF7 breast = test system: MCF7 breast
MDA-MB-231 breast = test system: MDA-MB-231 breast
MDA-MB-435 = test system: MDA-MB-435
MOLT-4 leukemia = test system: MOLT-4 leukemia
NCI-H226 lung = test system: NCI-H226 lung

Compound C=CCNCCN1C(=O)c2ccc3c4c(ccc(c24)C1=O)C(=O)N(CCNCC=C)C3=O has a GI50 (786-0 renal) of 1110 nM, a TGI (786-0 renal) of 2800 nM and a GI50 (A498 renal) of 1140 nM. The TGI (A498 renal) was 3570 nM, the GI50 (A549 NSCLC) was 418 nM and the TGI (A549 NSCLC) was 1670 nM. For the same compound, the GI50 (ACHN renal) was 407 nM, the TGI (ACHN renal) was 2520 nM and the GI50 (BT-549 breast) was 2910 nM. The TGI (BT-549 breast) was 10200 nM, the GI50 (CAKI-1 renal) was 630 nM and the TGI (CAKI-1 renal) was 1840 nM. For the same compound, the GI50 (CCRF-CEM leukemia) was 708 nM, the TGI (CCRF-CEM leukemia) was 3440 nM and the GI50 (COLO 205 colon) was 160 nM. It also gave a TGI (COLO 205 colon) of 407 nM, a GI50 (DU-145 prostate) of 663 nM and a TGI (DU-145 prostate) of 1360 nM. It also gave a GI50 (EKVX NSCLC) of 557 nM, a TGI (EKVX NSCLC) of 1510 nM and a GI50 (HCC-2998 colon) of 766 nM. For the same compound, the TGI (HCC-2998 colon) was 1550 nM, the GI50 (HCT-116 colon) was 500 nM and the TGI (HCT-116 colon) was 50000 nM. For the same compound, the GI50 (HCT-15 colon) was 457 nM, the TGI (HCT-15 colon) was 1660 nM and the GI50 (HL-60(TB) leukemia) was 860 nM. The TGI (HL-60(TB) leukemia) was 2210 nM, the GI50 (HOP-62 NSCLC) was 712 nM and the TGI (HOP-62 NSCLC) was 2700 nM. For the same compound, the GI50 (HOP-92 NSCLC) was 1810 nM, the TGI (HOP-92 NSCLC) was 5560 nM and the GI50 (HS 578T breast) was 1760 nM. The TGI (HS 578T breast) was 8710 nM, the GI50 (HT29 colon) was 193 nM and the TGI (HT29 colon) was 769 nM. The GI50 (IGROV1 ovarian) was 504 nM, the TGI (IGROV1 ovarian) was 1670 nM and the GI50 (K-562 leukemia) was 534 nM. For the same compound, the TGI (K-562 leukemia) was 3240 nM, the GI50 (KM12 colon) was 590 nM and the TGI (KM12 colon) was 1820 nM. For the same compound, the GI50 (LOX IMVI melanoma) was 728 nM, the TGI (LOX IMVI melanoma) was 1770 nM and the GI50 (M14 melanoma) was 918 nM. It also gave a TGI (M14 melanoma) of 1800 nM, a GI50 (MALME-3M melanoma) of 343 nM and a TGI (MALME-3M melanoma) of 996 nM. It also gave a GI50 (MCF7 breast) of 225 nM, a TGI (MCF7 breast) of 983 nM and a GI50 (MDA-MB-231 breast) of 1260 nM. For the same compound, the TGI (MDA-MB-231 breast) was 4710 nM, the GI50 (MDA-MB-435) was 745 nM and the TGI (MDA-MB-435) was 1700 nM. For the same compound, the GI50 (MOLT-4 leukemia) was 427 nM, the TGI (MOLT-4 leukemia) was 1630 nM and the GI50 (NCI-H226 lung) was 493 nM. For the same compound, the TGI (NCI-H226 lung) was 1460 nM.
